{"source": "patent US12723063B2", "about": "“GIPR-agonist compounds” (Eli Lilly and Company, priority 2019, dated 2026)", "biological_target": "T1, human GcgR (Homo sapiens, UniProt P47871)", "T1 construct": "expressed in transfected cells; crude membranes", "T1 sequence (P47871 26-477)": "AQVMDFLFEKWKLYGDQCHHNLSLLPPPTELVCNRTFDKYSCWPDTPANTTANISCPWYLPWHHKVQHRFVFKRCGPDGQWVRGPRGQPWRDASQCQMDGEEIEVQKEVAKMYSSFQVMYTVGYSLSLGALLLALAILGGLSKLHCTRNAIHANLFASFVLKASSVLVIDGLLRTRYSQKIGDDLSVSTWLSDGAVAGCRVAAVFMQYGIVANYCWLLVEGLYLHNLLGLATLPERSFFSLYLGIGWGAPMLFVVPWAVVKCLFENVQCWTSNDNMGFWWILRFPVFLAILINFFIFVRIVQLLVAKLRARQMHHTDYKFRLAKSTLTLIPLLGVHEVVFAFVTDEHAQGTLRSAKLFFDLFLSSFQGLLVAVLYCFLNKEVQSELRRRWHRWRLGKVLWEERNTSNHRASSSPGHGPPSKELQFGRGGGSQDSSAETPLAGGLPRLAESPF", "experiment": "[125I]-Glucagon binding, SPA with WGA beads, 0.1% bacitracin", "conditions": "geometric mean, read-out: hGcgR Ki", "outline": "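SPA competition binding with WGA beads on crude membranes from HEK293 cells stably expressing hGcgR. Buffer: 25 mM HEPES pH 7.4, 2.5 mM CaCl2, 1 mM MgCl2, 0.1% bacitracin, 0.003% Tween-20; 10-point 3-fold dilutions, NSB with 1 μM Gcg.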", "note": "*1 amine or outer side, *2 acyl side, *3 side chain or, on linkers, in order; H or OH if unused. Where a SMILES comes first, the peptide text is derived from it. Side-chain parts run from the residue outwards. [ ]: non-standard residue; d: D form. The star is where a group is joined. C20 diacid = O=C(O)CCCCCCCCCCCCCCCCCCC(=O)*; αMePhe(2-F) = C[C@](N)(Cc1ccccc1F)C(=O)O; γGlu = O=C(O)[C@H](CCC(=O)[*:2])N[*:1]; αMeF = C[C@](N)(Cc1ccccc1)C(=O)O; 4Pal = N[C@@H](Cc1ccncc1)C(=O)O; αMeL = CC(C)C[C@](C)(N)C(=O)O; AEEA = NCCOCCOCC(=O)O; Aib = CC(C)(N)C(=O)O", "data": [{"molecule": "CC[C@H](C)[C@H](NC(=O)[C@H](Cc1ccccc1)NC(=O)[C@@H](NC(=O)CNC(=O)[C@H](CCC(=O)O)NC(=O)C(C)(C)NC(=O)[C@@H](N)Cc1ccc(O)cc1)[C@@H](C)O)C(=O)N[C@@H](CO)C(=O)N[C@@H](CC(=O)O)C(=O)N[C@@H](Cc1ccc(O)cc1)C(=O)N[C@@H](CO)C(=O)N[C@H](C(=O)N[C@@](C)(CC(C)C)C(=O)N[C@@H](CC(C)C)C(=O)N[C@@H](CC(=O)O)C(=O)N[C@@H](CCCCN)C(=O)N[C@@H](CCCCNC(=O)COCCOCCNC(=O)COCCOCCNC(=O)CC[C@H](NC(=O)CCCCCCCCCCCCCCCCCCC(=O)O)C(=O)O)C(=O)N[C@@H](Cc1c[nH]cn1)C(=O)N[C@@H](CCC(N)=O)C(=O)NC(C)(C)C(=O)N[C@@H](CC(=O)O)C(=O)N[C@@H](Cc1ccccc1)C(=O)N[C@H](C(=O)N[C@@H](CCC(=O)O)C(=O)N[C@@H](Cc1ccc(O)cc1)C(=O)N[C@@H](CC(C)C)C(=O)N[C@@H](CC(C)C)C(=O)N[C@@H](CCC(=O)O)C(=O)N[C@H](C(=O)NCC(=O)N1CCC[C@H]1C(=O)N[C@@H](CO)C(=O)N[C@@H](CO)C(=O)NCC(=O)N[C@@H](C)C(=O)N1CCC[C@H]1C(=O)N1CCC[C@H]1C(=O)N1CCC[C@H]1C(=O)N[C@@H](CO)C(N)=O)[C@@H](C)O)C(C)C)[C@@H](C)CC", "note": "[Example 66] (H-Y[Aib]EGTFISDYSI[αMeL]LDKK([AEEA-AEEA-γGlu-C20 diacid])HQ[Aib]DFVEYLLETGPSSGAPPPS-NH2)", "values": [{"measurement": "Ki", "value": 0.279, "unit": "µM"}]}, {"molecule": "CC[C@H](C)[C@H](NC(=O)[C@H](Cc1ccccc1)NC(=O)[C@@H](NC(=O)CNC(=O)[C@H](CCC(=O)O)NC(=O)C(C)(C)NC(=O)[C@@H](N)Cc1ccc(O)cc1)[C@@H](C)O)C(=O)N[C@@H](CO)C(=O)N[C@@H](CC(=O)O)C(=O)N[C@@H](Cc1ccc(O)cc1)C(=O)N[C@@H](CO)C(=O)N[C@H](C(=O)N[C@@](C)(CC(C)C)C(=O)N[C@@H](CC(C)C)C(=O)N[C@@H](CC(=O)O)C(=O)N[C@@H](CCCCN)C(=O)N[C@@H](CCCCNC(=O)COCCOCCNC(=O)COCCOCCNC(=O)CC[C@H](NC(=O)CCCCCCCCCCCCCCCCCCC(=O)O)C(=O)O)C(=O)N[C@@H](Cc1c[nH]cn1)C(=O)N[C@@H](CCC(N)=O)C(=O)NC(C)(C)C(=O)N[C@@H](CC(=O)O)C(=O)N[C@@H](Cc1ccccc1)C(=O)N[C@H](C(=O)N[C@@H](CCC(=O)O)C(=O)N[C@@H](Cc1ccncc1)C(=O)N[C@@H](CC(C)C)C(=O)N[C@@H](CC(C)C)C(=O)N[C@@H](C)C(=O)N[C@H](C(=O)NCC(=O)N1CCC[C@H]1C(=O)N[C@@H](CO)C(=O)N[C@@H](CO)C(=O)NCC(=O)N[C@@H](C)C(=O)N1CCC[C@H]1C(=O)N1CCC[C@H]1C(=O)N1CCC[C@H]1C(=O)N[C@@H](CO)C(N)=O)[C@@H](C)O)C(C)C)[C@@H](C)CC", "note": "[Example 70] (H-Y[Aib]EGTFISDYSI[αMeL]LDKK([AEEA-AEEA-γGlu-C20 diacid])HQ[Aib]DFVE[4Pal]LLATGPSSGAPPPS-NH2)", "values": [{"measurement": "Ki", "value": 0.857, "unit": "µM"}]}, {"molecule": "CC[C@H](C)[C@H](NC(=O)[C@H](Cc1ccccc1)NC(=O)[C@@H](NC(=O)CNC(=O)[C@H](CCC(=O)O)NC(=O)C(C)(C)NC(=O)[C@@H](N)Cc1ccc(O)cc1)[C@@H](C)O)C(=O)N[C@@H](CO)C(=O)N[C@@H](CC(=O)O)C(=O)N[C@@H](Cc1ccc(O)cc1)C(=O)N[C@@H](CO)C(=O)N[C@H](C(=O)N[C@@](C)(CC(C)C)C(=O)N[C@@H](CC(C)C)C(=O)N[C@@H](CC(=O)O)C(=O)N[C@@H](CCCCN)C(=O)N[C@@H](CCCCNC(=O)COCCOCCNC(=O)COCCOCCNC(=O)CC[C@H](NC(=O)CCCCCCCCCCCCCCCCCCC(=O)O)C(=O)O)C(=O)N[C@@H](Cc1c[nH]cn1)C(=O)N[C@@H](CCC(N)=O)C(=O)NC(C)(C)C(=O)N[C@@H](CCC(=O)O)C(=O)N[C@@H](Cc1ccccc1)C(=O)N[C@H](C(=O)N[C@@H](CCC(=O)O)C(=O)N[C@@H](Cc1ccncc1)C(=O)N[C@@H](CC(C)C)C(=O)N[C@@H](CC(C)C)C(=O)N[C@@H](C)C(=O)N[C@H](C(=O)NCC(=O)N1CCC[C@H]1C(=O)N[C@@H](CO)C(=O)N[C@@H](CO)C(=O)NCC(=O)N[C@@H](C)C(=O)N1CCC[C@H]1C(=O)N1CCC[C@H]1C(=O)N1CCC[C@H]1C(=O)N[C@@H](CO)C(N)=O)[C@@H](C)O)C(C)C)[C@@H](C)CC", "note": "[Example 58] (H-Y[Aib]EGTFISDYSI[αMeL]LDKK([AEEA-AEEA-γGlu-C20 diacid])HQ[Aib]EFVE[4Pal]LLATGPSSGAPPPS-NH2)", "values": [{"measurement": "Ki", "value": 0.418, "unit": "µM"}]}, {"molecule": "CC[C@H](C)[C@H](NC(=O)[C@H](Cc1ccccc1)NC(=O)[C@@H](NC(=O)CNC(=O)[C@H](CCC(=O)O)NC(=O)C(C)(C)NC(=O)[C@@H](N)Cc1ccc(O)cc1)[C@@H](C)O)C(=O)N[C@@H](CO)C(=O)N[C@@H](CC(=O)O)C(=O)N[C@@H](Cc1ccc(O)cc1)C(=O)N[C@@H](CO)C(=O)N[C@H](C(=O)N[C@@](C)(CC(C)C)C(=O)N[C@@H](CC(C)C)C(=O)N[C@@H](CC(=O)O)C(=O)N[C@@H](CCCCN)C(=O)N[C@@H](CCCCNC(=O)COCCOCCNC(=O)COCCOCCNC(=O)CC[C@H](NC(=O)CCCCCCCCCCCCCCCCCCC(=O)O)C(=O)O)C(=O)N[C@@H](Cc1c[nH]cn1)C(=O)N[C@@H](CCC(N)=O)C(=O)NC(C)(C)C(=O)N[C@@H](CCC(=O)O)C(=O)N[C@@H](Cc1ccccc1)C(=O)N[C@H](C(=O)N[C@@H](CCC(=O)O)C(=O)N[C@@H](Cc1ccc(O)cc1)C(=O)N[C@@H](CC(C)C)C(=O)N[C@@H](CC(C)C)C(=O)N[C@@H](CCC(=O)O)C(=O)N[C@@H](C)C(=O)NCC(=O)N1CCC[C@H]1C(=O)N[C@@H](CO)C(=O)N[C@@H](CO)C(=O)NCC(=O)N[C@@H](C)C(=O)N1CCC[C@H]1C(=O)N1CCC[C@H]1C(=O)N1CCC[C@H]1C(=O)N[C@@H](CO)C(N)=O)C(C)C)[C@@H](C)CC", "note": "[Example 65] (H-Y[Aib]EGTFISDYSI[αMeL]LDKK([AEEA-AEEA-γGlu-C20 diacid])HQ[Aib]EFVEYLLEAGPSSGAPPPS-NH2)", "values": [{"measurement": "Ki", "value": 0.279, "unit": "µM"}]}, {"molecule": "CC[C@H](C)[C@H](NC(=O)[C@H](CO)NC(=O)[C@H](Cc1ccc(O)cc1)NC(=O)[C@H](CC(=O)O)NC(=O)[C@H](CO)NC(=O)[C@@H](NC(=O)[C@](C)(Cc1ccccc1F)NC(=O)[C@@H](NC(=O)CNC(=O)[C@H](CCC(=O)O)NC(=O)C(C)(C)NC(=O)[C@@H](N)Cc1ccc(O)cc1)[C@@H](C)O)[C@@H](C)CC)C(=O)N[C@@H](C)C(=O)N[C@@H](CC(C)C)C(=O)N[C@@H](CC(=O)O)C(=O)N[C@@H](CCCCN)C(=O)N[C@@H](CCCCNC(=O)COCCOCCNC(=O)COCCOCCNC(=O)CC[C@H](NC(=O)CCCCCCCCCCCCCCCCCCC(=O)O)C(=O)O)C(=O)N[C@@H](Cc1c[nH]cn1)C(=O)N[C@@H](CCC(N)=O)C(=O)NC(C)(C)C(=O)N[C@@H](CC(=O)O)C(=O)N[C@@H](Cc1ccccc1)C(=O)N[C@H](C(=O)N[C@@H](CCC(=O)O)C(=O)N[C@@H](Cc1ccncc1)C(=O)N[C@@H](CC(C)C)C(=O)N[C@@H](CC(C)C)C(=O)N[C@@H](CCC(=O)O)C(=O)N[C@H](C(=O)NCC(=O)N1CCC[C@H]1C(=O)N[C@@H](CO)C(=O)N[C@@H](CO)C(=O)NCC(=O)N[C@@H](C)C(=O)N1CCC[C@H]1C(=O)N1CCC[C@H]1C(=O)N1CCC[C@H]1C(=O)N[C@@H](CO)C(N)=O)[C@@H](C)O)C(C)C", "note": "[Example 38] (H-Y[Aib]EGT[αMePhe(2-F)]ISDYSIALDKK([AEEA-AEEA-γGlu-C20 diacid])HQ[Aib]DFVE[4Pal]LLETGPSSGAPPPS-NH2)", "values": [{"measurement": "Ki", "value": 0.182, "unit": "µM"}]}, {"molecule": "CC[C@H](C)[C@H](NC(=O)[C@H](CO)NC(=O)[C@H](Cc1ccc(O)cc1)NC(=O)[C@H](CC(=O)O)NC(=O)[C@H](CO)NC(=O)[C@@H](NC(=O)[C@](C)(Cc1ccccc1)NC(=O)[C@@H](NC(=O)CNC(=O)[C@H](CCC(=O)O)NC(=O)C(C)(C)NC(=O)[C@@H](N)Cc1ccc(O)cc1)[C@@H](C)O)[C@@H](C)CC)C(=O)N[C@@](C)(CC(C)C)C(=O)N[C@@H](CC(C)C)C(=O)N[C@@H](CC(=O)O)C(=O)N[C@@H](CCCCN)C(=O)N[C@@H](CCCCNC(=O)COCCOCCNC(=O)COCCOCCNC(=O)CC[C@H](NC(=O)CCCCCCCCCCCCCCCCCCC(=O)O)C(=O)O)C(=O)N[C@@H](Cc1c[nH]cn1)C(=O)N[C@@H](CCC(N)=O)C(=O)NC(C)(C)C(=O)N[C@@H](CCC(=O)O)C(=O)N[C@@H](Cc1ccccc1)C(=O)N[C@H](C(=O)N[C@@H](CCC(=O)O)C(=O)N[C@@H](Cc1ccncc1)C(=O)N[C@@H](CC(C)C)C(=O)N[C@@H](CC(C)C)C(=O)N[C@@H](C)C(=O)N[C@@H](C)C(=O)NCC(=O)N1CCC[C@H]1C(=O)N[C@@H](CO)C(=O)N[C@@H](CO)C(=O)NCC(=O)N[C@@H](C)C(=O)N1CCC[C@H]1C(=O)N1CCC[C@H]1C(=O)N1CCC[C@H]1C(=O)N[C@@H](CO)C(N)=O)C(C)C", "note": "[Example 62] (H-Y[Aib]EGT[αMeF]ISDYSI[αMeL]LDKK([AEEA-AEEA-γGlu-C20 diacid])HQ[Aib]EFVE[4Pal]LLAAGPSSGAPPPS-NH2)", "values": [{"measurement": "Ki", "value": 0.0313, "unit": "µM"}]}, {"molecule": "CC[C@H](C)[C@H](NC(=O)[C@H](Cc1ccccc1)NC(=O)[C@@H](NC(=O)CNC(=O)[C@H](CCC(=O)O)NC(=O)C(C)(C)NC(=O)[C@@H](N)Cc1ccc(O)cc1)[C@@H](C)O)C(=O)N[C@@H](CO)C(=O)N[C@@H](CC(=O)O)C(=O)N[C@@H](Cc1ccc(O)cc1)C(=O)N[C@@H](CO)C(=O)N[C@H](C(=O)N[C@@](C)(CC(C)C)C(=O)N[C@@H](CC(C)C)C(=O)N[C@@H](CC(=O)O)C(=O)N[C@@H](CCCCN)C(=O)N[C@@H](CCCCNC(=O)COCCOCCNC(=O)COCCOCCNC(=O)CC[C@H](NC(=O)CCCCCCCCCCCCCCCCCCC(=O)O)C(=O)O)C(=O)N[C@@H](Cc1c[nH]cn1)C(=O)N[C@@H](CCC(N)=O)C(=O)NC(C)(C)C(=O)N[C@@H](CCC(=O)O)C(=O)N[C@@H](Cc1ccccc1)C(=O)N[C@H](C(=O)N[C@@H](CCC(=O)O)C(=O)N[C@@H](Cc1ccncc1)C(=O)N[C@@H](CC(C)C)C(=O)N[C@@H](CC(C)C)C(=O)N[C@@H](C)C(=O)N[C@@H](CCC(N)=O)C(=O)NCC(=O)N1CCC[C@H]1C(=O)N[C@@H](CO)C(=O)N[C@@H](CO)C(=O)NCC(=O)N[C@@H](C)C(=O)N1CCC[C@H]1C(=O)N1CCC[C@H]1C(=O)N1CCC[C@H]1C(=O)N[C@@H](CO)C(N)=O)C(C)C)[C@@H](C)CC", "note": "[Example 57] (H-Y[Aib]EGTFISDYSI[αMeL]LDKK([AEEA-AEEA-γGlu-C20 diacid])HQ[Aib]EFVE[4Pal]LLAQGPSSGAPPPS-NH2)", "values": [{"measurement": "Ki", "value": 0.422, "unit": "µM"}]}]}
